For data set [1] the following is noted: cited from earlier work.
Another data set deals with T1, EGFR-TK (Homo sapiens, UniProt P00533).
T1 construct: As a source of EGFR-TK, A431 human epidermoid carcinoma cell lysate was used; endogenous in cells; host or cells: A431 human epidermoid carcinoma cells (Triton X-100 lysate, EGFR captured by monoclonal antibody m108)
The data set can be described thus: EGFR-TK autophosphorylation inhibition (ELISA assay). The format is biochemical. How it is done:
Autophosphorylation Inhibition Experiments:
EGFR-TK source: As a source of EGFR-TK, A431 human epidermoid carcinoma cell lysate was used. A431 cells were grown in DMEM containing 10% fetal calf serum and antibiotics penicillin and streptomycin). After several days, the cells were removed from the flasks by incubation at 37° C. with PBS/i mM EDTA buffer for 1 hour. […] Cell lysate was obtained with a further centrifugation (10,000 rpm×10 minutes at 4° C.), and the supernatant was collected and frozen at -70° C. in aliquots.
ELISA assay: EGFR-TK autophosphorylation IC50 values were obtained by means an ELISA assay. All the following incubations were performed at room temperature and with constant shaking. After each step the plate was washed with water (5×) and TBST buffer (1×). The final volume for each well was 150 μl. A Coming 96 well ELISA plate was coated with monoclonal anti EGFR antibody m108 (Sugen Inc.) diluted in PBS (pH 8.2), and kept overnight at 4° C.
After removing the unbound m108, the plate was washed and PBS containing 5% milk (1% fat) was added for the blocking (25 minutes). One aliquot of A431 cell lysate was thawed and added to the plate.
After 25 minutes, seven different concentrations of each inhibitor were added, and for each case one well was left as a control. All inhibitors were diluted in TBS/DMSO and the final concentration of DMSO was 0.05% in each well (including the controls).
After 25 minutes, and without washing the plate, ATP/MnCl2 solution was added in each well. The final concentration was 3 μM ATP/5 mM MnCl2. In this step the temperature was kept at 26° C. and the plate was under constant shaking. The incubation with ATP/MnCl2 was for 5 minutes.
Then, to stop the phosphorylation reaction, EDTA was added (pH 8, final concentration in each well 20 mM) and after 1 minute all the plate was washed.
Afterward, polyclonal anti-phosphotyrosine serum (Sugen, Inc.) was added (dilution of antibody in TBST containing 5% milk). The incubation was for 45 minutes.
For the calorimetric detection of phosphotyrosine in EGFR-TK, TAGO anti-rabbit peroxidase conjugate antibody (Sugen, Inc.) was added in TBST/5% milk solution (45 minutes).
After washing, the colorimetric reaction was performed by adding ABTS/H2 O2 in citrate-phosphate buffer.
The analysis of the data was performed with "Regression" software.
Since the exact concentrations of m108 in the stock solution and EGFR-TK in the cell lysate were unknown, an experiment was performed to determine the optimal dilution of m108 stock and lysate. Stock m108 (approx. 0.2-0.5 μg/μl) was diluted 1:400, 1:600, 1:800 and 1:1000 with PBS, while A431 cell lysate was diluted 1:2, 1:4, 1:6, 1:8, and 1:10.

Setting [2] is: average ± SEM, A431 cell lysate, 3 μM ATP/5 mM MnCl2, Table 1, read-out: Autophosphorylation IC50.
Setting [3] is: read-out: IC50 toward epidermal growth factor receptor tyrosine kinase activity (autophosphorylation).

“And” between values parts separate entries of the source, which are not always exact repeats. Equal values may be shown once. “Also recorded” adds a separate entry of the source. Read-outs that look alike come from different tables or passages of the source.

Consider four compounds from patent publication US6126917A, “Epidermal growth factor receptor binding compounds for positron emission tomography” (Hadasit Medical Research Services and Development Ltd., priority 1999, dated 2000).

T1 sequence (P00533 25-1210): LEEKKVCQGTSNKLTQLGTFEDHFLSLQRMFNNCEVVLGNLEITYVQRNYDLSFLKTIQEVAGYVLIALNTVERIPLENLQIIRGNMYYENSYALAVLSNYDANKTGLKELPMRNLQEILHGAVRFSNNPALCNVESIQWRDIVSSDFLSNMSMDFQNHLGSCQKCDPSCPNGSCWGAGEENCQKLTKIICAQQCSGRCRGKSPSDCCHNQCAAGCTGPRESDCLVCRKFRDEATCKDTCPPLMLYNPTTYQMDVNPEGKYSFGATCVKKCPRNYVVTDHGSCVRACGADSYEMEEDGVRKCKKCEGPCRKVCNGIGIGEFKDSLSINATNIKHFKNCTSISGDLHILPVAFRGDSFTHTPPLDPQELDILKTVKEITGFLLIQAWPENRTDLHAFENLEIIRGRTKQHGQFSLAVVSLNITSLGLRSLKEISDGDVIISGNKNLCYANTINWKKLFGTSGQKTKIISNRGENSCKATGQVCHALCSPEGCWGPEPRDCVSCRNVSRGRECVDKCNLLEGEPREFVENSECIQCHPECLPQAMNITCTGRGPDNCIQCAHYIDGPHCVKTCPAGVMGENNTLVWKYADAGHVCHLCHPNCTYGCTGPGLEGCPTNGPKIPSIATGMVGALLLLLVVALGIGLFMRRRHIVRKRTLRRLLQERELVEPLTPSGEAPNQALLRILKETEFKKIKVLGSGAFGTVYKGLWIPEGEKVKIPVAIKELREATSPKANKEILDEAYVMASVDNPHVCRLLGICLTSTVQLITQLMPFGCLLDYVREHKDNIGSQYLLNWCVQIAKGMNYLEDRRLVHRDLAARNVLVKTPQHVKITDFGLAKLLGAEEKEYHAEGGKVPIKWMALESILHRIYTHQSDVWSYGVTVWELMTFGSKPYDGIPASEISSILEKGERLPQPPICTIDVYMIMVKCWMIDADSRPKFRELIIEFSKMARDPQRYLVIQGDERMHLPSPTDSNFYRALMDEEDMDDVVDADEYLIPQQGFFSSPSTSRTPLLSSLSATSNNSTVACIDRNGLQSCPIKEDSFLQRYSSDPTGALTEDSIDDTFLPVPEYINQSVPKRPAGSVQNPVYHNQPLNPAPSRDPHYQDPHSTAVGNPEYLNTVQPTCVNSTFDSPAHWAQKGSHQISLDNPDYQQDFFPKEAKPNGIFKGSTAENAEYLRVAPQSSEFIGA

Regarding `COc1cc2ncnc(Nc3cccc(Br)c3)c2cc1OC` [PD 153035], in data set [1] (of maximum, after approximately 3 hours), the “plasma level after approximately 3 hours, % of the maximum” value is listed as 2%. For the same compound, the metabolism entry in data set [1] (two identified as 6- and 7-monodemethylated derivatives) is given as “metabolism to four compounds”.

For `COc1cc2ncnc(Nc3cc(Cl)c(Cl)cc3F)c2cc1OC` [Compound 4, 4-[(3,4-Dichloro-6-fluorophenyl)amino]-6,7-dimethoxyquinazoline], the “EGFR-TK autophosphorylation inhibitor potency” value on EGFR-TK is listed as “most potent inhibitor; also recorded: very potent EGFR-TK autophosphorylation inhibitor”. Further, the IC50 at EGFR-TK (setting [2]) came out at 0.22 ± 0.18 nM; on EGFR-TK (setting [3]), 0.22 nM.

`COc1cc2ncnc(Nc3ccc(F)cc3)c2cc1OC` [Compound 1, 4-[(4-Fluorophenyl)amino]-6,7-dimethoxyquinazoline]: the half-inhibitory concentration (IC50) on EGFR-TK (setting [2]) is 76.1 ± 3.2 nM; at EGFR-TK (setting [3]), 76 nM and 76.1 nM.

With `COc1cc2ncnc(Nc3cc(F)cc(C(F)(F)F)c3)c2cc1OC` [Compound 3, ^4-[(3-Fluoro-5-trifluoromethylphenyl)amino]-6,7-dimethoxyquinazoline], the half-maximal inhibitory concentration (IC50) at EGFR-TK (setting [2]) was determined as 116 ± 14 nM; at EGFR-TK (setting [3]), 116 nM.
